The text below walks through data of PMC12040169 (PLOS Biology, 2025).

This data set in a line: in vitro. The conditions noted are these: human, hela cells, % viability.

For the molecule `CC(=O)N1CC[C@H]2NC(=O)CNC(=O)C3(CCCC[C@H]2C1)CCNCC3` [CBK292142], the viability at 28.5 h, 10 µM was determined as 93.8%.
Regarding `COCCN1CCC2(C/C=C/C[C@H]3COCC[C@H]3NC(=O)CNC2=O)CC1` [CBK292145], the viability at 28.5 h, 10 µM was found to be 116%.
The result for `CCC(=O)N1CCC2(CCCC[C@H]3CN(C(C)=O)CC[C@H]3NC(=O)CNC2=O)CC1` [CBK292147] reads 96.6%; that for `CN1C(=O)COc2ccccc2CCCC[C@@H]2[C@H]1CCCN2C(=O)Cn1ccnc1` [CBK292152], 110%; that for `Cc1nn(C)cc1C(=O)N1CCC2(C/C=C/CCOc3ccccc3C(=O)NCCCNC2=O)CC1` [CBK292154], 110%.
Consider `CN1C(=O)COc2ccccc2C/C=C/C[C@H]2NCCC[C@H]21` [CBK292156], for which the viability at 28.5 h, 10 µM was determined as 80.9%.
The result for `CC(C)C(=O)N1CCC2(C/C=C/C[C@H]3COCC[C@H]3NC(=O)CNC2=O)CC1` [CBK292157] reads 95.8%; that for `COCC(=O)N1CCC2(C/C=C/C[C@H]3COCC[C@@H]3NC(=O)CNC2=O)CC1` [CBK292158], 95.2%.
On to `O=C1NCC2(C/C=C/CCOc3ccccc31)CCN(Cc1ccccn1)CC2` [CBK292159], for which the viability at 28.5 h, 10 µM stood at 84.2%.
With `O=C1N[C@H]2CCCN(C(=O)CCN3CCCC3)[C@H]2C/C=C/CCOc2ccccc21` [CBK292162], the viability at 28.5 h, 10 µM worked out at 112%.
Regarding `CC(=O)N1CCC2(CCCC[C@H]3CN(Cc4coc(C)n4)CC[C@@H]3NC(=O)CNC2=O)CC1` [CBK292165], the viability at 28.5 h, 10 µM is 101%.
Consider `CC(=O)N1CCC2(CCCC[C@H]3CNCC[C@@H]3NC(=O)CNC2=O)CC1` [CBK292167], for which the viability at 28.5 h, 10 µM amounted to 91.7%.
For the molecule `CN1C(=O)COc2ccccc2C/C=C/C[C@@H]2[C@H]1CCCN2C(=O)CCCNc1ncccn1` [CBK292168], the viability at 28.5 h, 10 µM was determined as 112%.
As for `O=C1NCCNC(=O)C2(C/C=C/COc3ccccc31)CCCNC2` (stereo not shown) [CBK292171], the viability at 28.5 h, 10 µM is 115%.
As to `CC(=O)N1CCC[C@H]2NC(=O)CNC(=O)C3(C/C=C/C[C@H]21)CCNCC3` [CBK292173], the viability at 28.5 h, 10 µM amounted to 89.8%.
With `CC(=O)N1CCC[C@H]2NC(=O)CNC(=O)C3(C/C=C/C[C@H]21)CCN(C(=O)C1CCC1)CC3` [CBK292177] the figure was 109%; with `O=C1NCC2(C/C=C/CCOc3ccccc31)CCNCC2` [CBK292178], 104%.
With `Cn1ccnc1CN1CCC2(C/C=C/Cc3ccccc3OCC(=O)NCCNC2=O)CC1` [CBK292180] the figure was 95.7%.
For `CNCC(=O)N1CCC2(CCCC[C@H]3CN(C(C)=O)CC[C@H]3NC(=O)CNC2=O)CC1` [CBK292181], the viability at 28.5 h, 10 µM came to 79.3%.
Turning to `Cn1nccc1C(=O)N1CCC2(C/C=C/COc3ccccc3C(=O)NC[C@@H](Cc3ccccc3)NC2=O)CC1` [CBK292183], the viability at 28.5 h, 10 µM was found to be 99.8%.
With `CN(C)C(=O)CN1CCC2(C/C=C/COc3ccccc3C(=O)NC[C@@H](Cc3ccccc3)NC2=O)CC1` [CBK292185], the viability at 28.5 h, 10 µM worked out at 107%.
Consider `O=C1N[C@@H]2CCN(Cc3cnccn3)C[C@H]2C/C=C/CC2(CCOCC2)C(=O)N[C@H]1Cc1ccccc1` [CBK292189], for which the viability at 28.5 h, 10 µM amounted to 97.3%.
Regarding `CC(=O)N[C@@H](CC[S+](C)[O-])C(=O)N1CCC2(C/C=C/C[C@@H]3COCC[C@@H]3NC(=O)[C@@H](CC(C)C)NC2=O)CC1` (stereo partly shown) [CBK292192], the viability at 28.5 h, 10 µM amounted to 105%.
As to `COc1ccc(C(=O)N2CCC[C@H]3NC(=O)COc4ccccc4C(=O)N[C@@H]4CCOC[C@@H]4C/C=C/C[C@@H]32)cc1` [CBK292194], the viability at 28.5 h, 10 µM worked out at 102%.
With `CC(=O)N1CCC[C@@H]1C(=O)N1CC[C@@H]2NC(=O)[C@H](Cc3ccccc3)NC(=O)C3(C/C=C/C[C@@H]2C1)CCOCC3` [CBK292195] the figure was 104%; with `CC(C)C[C@H]1NC(=O)C2(C/C=C/C[C@@H]3COCC[C@@H]3NC1=O)CCN(C(=O)[C@@H](N)Cc1c[nH]c3ccccc13)CC2` [CBK292200], 109%.
`CC(C)[C@@H](N)C(=O)N1CC[C@@H]2NC(=O)[C@@H](Cc3ccccc3)NC(=O)C3(C/C=C/C[C@H]2C1)CCOCC3` [CBK292201]: the viability at 28.5 h, 10 µM is 112%.
`N[C@@H](Cc1c[nH]c2ccccc12)C(=O)N1CC[C@H]2NC(=O)[C@@H](Cc3ccccc3)NC(=O)C3(C/C=C/C[C@@H]2C1)CCOCC3` [CBK292202]: the viability at 28.5 h, 10 µM stood at 115%.
With `CC(=O)N[C@@H](Cc1c[nH]cn1)C(=O)N1CC[C@H]2NC(=O)[C@H](Cc3ccccc3)NC(=O)C3(C/C=C/C[C@H]2C1)CCOCC3` [CBK292206] the figure was 116%; with `COCCOC(=O)C1=C(C)NC2=C(C(=O)CC(c3ccc(OC)cc3)C2)C1c1ccc(F)cc1` (stereo not shown) [CBK293921], 88.9%.
With `COc1ccc(C2CC(=O)C3=C(C2)NC(C)=C(C#N)C3c2cccc(F)c2)cc1` (stereo not shown) [CBK293922] the figure was 91.6%; with `O=C(COC(=O)c1cc(-c2ccc(Cl)cc2)nc2ccccc12)c1cccc([N+](=O)[O-])c1` [CBK293923], 83%.
For `Cc1ccc(OCC(=O)Nc2ncc(Cc3ccc(F)cc3)s2)cc1` [CBK293930], the viability at 28.5 h, 10 µM came out at 82.2%.
With `COc1ccccc1N1CCN(c2cc(N3CCNCC3)ccc2[N+](=O)[O-])CC1` [CBK293931], the viability at 28.5 h, 10 µM amounted to 85.1%.
The result for `Cc1ccc(S(=O)(=O)n2c(SCc3ccccc3)nc3ccccc32)cc1` [CBK293933] reads 104%; that for `Cc1ccc(OCC(=O)N2N=C(CC(C)C)CC2(O)C(F)(F)F)cc1C` (stereo not shown) [CBK293935], 91.5%; that for `CC1(C)CC(=O)c2cc(C(N)=O)c(=O)n(-c3ccc(Cl)cc3)c2C1` [CBK293936], 88.8%.
For the molecule `CCCCC(=O)NC(c1ccc(Cl)cc1)c1cc([N+](=O)[O-])c2cccnc2c1O` (stereo not shown) [CBK293938], the viability at 28.5 h, 10 µM was found to be 90.1%.
Consider `COc1ccc(C(NC(=O)CCc2ccccc2)c2ccc3cccnc3c2O)cc1` (stereo not shown) [CBK293942], for which the viability at 28.5 h, 10 µM worked out at 86%.
The result for `COc1ccc(NC(=O)N2CCCCC2c2cccnc2)cc1` (stereo not shown) [CBK293947] reads 102%; that for `CC(=O)Oc1ccc2c(=O)c(C3NC(C(=O)O)Cc4c3[nH]c3ccccc43)coc2c1` (stereo not shown) [CBK293948], 120%.
On to `COc1ccc(CNc2cnc3ccccc3c2)c(O)c1` [CBK293951], for which the viability at 28.5 h, 10 µM was found to be 87.5%.
Consider `NC(=O)C1CCN(C(=O)CSc2nc3ccccc3s2)CC1` [CBK293953], for which the viability at 28.5 h, 10 µM turned out to be 95.2%.
With `COc1ccccc1NC(=O)C1=C(C)Nc2nnnn2C1c1ccc(OC)c([N+](=O)[O-])c1` (stereo not shown) [CBK293954], the viability at 28.5 h, 10 µM stood at 83.8%.
`CCOC(=O)c1c(N)sc2c1CC(c1ccccc1)SC2c1ccccc1` (stereo not shown) [CBK293955]: the viability at 28.5 h, 10 µM worked out at 87.5%.
As for `COc1ccc(-c2cc(C(=O)NCc3cccnc3)c3cc(Br)ccc3n2)cc1` [CBK293958], the viability at 28.5 h, 10 µM came out at 86.1%.
On to `Cc1ccc(-c2cc(C(=O)NCc3cnn(C)c3)c3cc(Br)ccc3n2)cc1` [CBK293959], for which the viability at 28.5 h, 10 µM was 89.1%.
On to `CCC1SC2=NC(C)=C(C(=O)OCc3ccccc3)C(c3ccccc3)N2C1=O` (stereo not shown) [CBK293960], for which the viability at 28.5 h, 10 µM came to 82.7%.
In the case of `CCc1ccc(CN(C(=O)c2cc(OC)c(OC)c(OC)c2)C2CCS(=O)(=O)C2)cc1` (stereo not shown) [CBK293961], the viability at 28.5 h, 10 µM was 98.4%.

The term viability denotes a read-out of living cells in per cent, often relative to untreated cells.
